In the assay the target is T1, human β3-AR (Homo sapiens, UniProt P13945).
T1 construct: expressed in transfected cells; host or cells: CHO (Chinese hamster ovary) cells, stably transfected
The assay can be described thus: cAMP functional agonist assay (LANCE TR-FRET) in CHO cells expressing cloned human β3-AR. It is filed as cell-based. Particulars: for EC50: CHO cells stably expressing cloned human β3-adrenoceptor, cAMP release, read-out: Human β3-AR Agonism EC50; for Fold drop in potency vs. 2-chloropyridine analog: EC50 of comparative example divided by EC50 of corresponding 2-chloropyridine compound; for Human β3-AR Agonist Activity (%): percent maximum activation relative to isoproterenol. Background: In TR-FRET formats the signal depends on donor and acceptor labels being close together.

What is called EC50 is the concentration that produces a half-maximal response.

T1 sequence (P13945 whole entry): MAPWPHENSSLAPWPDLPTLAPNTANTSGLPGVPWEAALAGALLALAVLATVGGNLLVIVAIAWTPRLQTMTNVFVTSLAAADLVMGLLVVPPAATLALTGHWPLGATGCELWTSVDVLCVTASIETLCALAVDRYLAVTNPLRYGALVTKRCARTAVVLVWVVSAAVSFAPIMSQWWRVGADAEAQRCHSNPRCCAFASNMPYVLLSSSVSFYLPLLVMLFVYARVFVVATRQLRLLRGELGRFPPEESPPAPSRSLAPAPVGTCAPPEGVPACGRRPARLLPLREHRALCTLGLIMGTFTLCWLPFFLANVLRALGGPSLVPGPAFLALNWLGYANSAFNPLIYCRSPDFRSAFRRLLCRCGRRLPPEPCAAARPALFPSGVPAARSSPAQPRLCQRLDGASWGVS

In the case of `COC(=O)c1cncc(CN(C)C(=O)c2ccc(C[C@@H]3CC[C@H]([C@H](O)c4ccccc4)N3)cc2)c1` [Example 34-B, Methyl 5-((4-(((2S,5R)-5-((R)-hydroxy(phenyl)methyl)pyrrolidin-2-yl)methyl)-N-methylbenzamido)methyl)nicotinate], the EC50 came to 0.014 µM, the “Fold drop in potency vs. 2-chloropyridine analog” value came out at 2.3 fold and the “Human β3-AR Agonist Activity (%)” value is reported as 101%.

In the case of `CN(Cc1cccnc1)C(=O)c1ccc(C[C@@H]2CC[C@H]([C@H](O)c3ccc(C#N)nc3)N2)cc1` [Example 21-O, 4-(((2S,5R)-5-((R)-(6-cyanopyridin-3-yl)(hydroxy)methyl)pyrrolidin-2-yl)methyl)-N-methyl-N-(pyridin-3-ylmethyl)benzamide], the EC50 is 0.274 µM, the “Fold drop in potency vs. 2-chloropyridine analog” value stood at 64.3 fold and the “Human β3-AR Agonist Activity (%)” value is 77%.

Take `CC(c1cnccn1)N(C)C(=O)c1ccc(C[C@@H]2CC[C@H]([C@H](O)c3ccccc3)N2)cc1` (stereo partly drawn) [Example 41-B, 4-(((2S,5R)-5-((R)-hydroxy(phenyl)methyl)pyrrolidin-2-yl)methyl)-N-methyl-N-(1-(pyrazin-2-yl)ethyl)benzamide]: the EC50 was 0.016 µM, the “Fold drop in potency vs. 2-chloropyridine analog” value was 9.1 fold and the “Human β3-AR Agonist Activity (%)” value is 109%.

For the compound `Cc1cc(CN(C)C(=O)c2ccc(C[C@@H]3CC[C@H]([C@H](O)c4ccc(Cl)cc4)N3)cc2)n[nH]1` [Example 4-G, 4-(((2S,5R)-5-((R)-(4-chlorophenyl)(hydroxy)methyl)pyrrolidin-2-yl)methyl)-N-methyl-N-((5-methyl-1H-pyrazol-3-yl)methyl)benzamide], the EC50 was determined as 0.004 µM, the “Fold drop in potency vs. 2-chloropyridine analog” value turned out to be 0.8 fold and the “Human β3-AR Agonist Activity (%)” value was 95%.

Take `CC(C)[C@H](c1nn(C)c(=O)o1)N(C)C(=O)c1ccc(C[C@@H]2CC[C@H]([C@H](O)c3ccc(Cl)nc3)N2)cc1` [Example 19-A, 4-(((2S,5R)-5-((R)-(6-chloropyridin-3-yl)(hydroxy)methyl)pyrrolidin-2-yl)methyl)-N-methyl-N—((R)-2-methyl-1-(4-methyl-5-oxo-4,5-dihydro-1,3,4-oxadiazol-2-yl)propyl) benzamide]: the EC50 is 0.005 µM and the “Human β3-AR Agonist Activity (%)” value is recorded as 111%.

Turning to `CC(O)c1cncc(CN(C)C(=O)c2ccc(C[C@@H]3CC[C@H]([C@H](O)c4ccccc4)N3)cc2)c1` (stereo partly drawn) [Example 31-B, 4-(((2S,5R)-5-((R)-hydroxy(phenyl)methyl)pyrrolidin-2-yl)methyl)-N-((5-(1-hydroxyethyl)pyridin-3-yl)methyl)-N-methylbenzamide], the EC50 worked out at 0.016 µM, the “Fold drop in potency vs. 2-chloropyridine analog” value came out at 2.3 fold and the “Human β3-AR Agonist Activity (%)” value stood at 104%.

On to `CN(Cc1cccnc1F)C(=O)c1ccc(C[C@@H]2CC[C@H]([C@H](O)c3ccc(F)cc3)N2)cc1` [Example 26-F, 4-(((2S,5R)-5-((R)-(4-fluorophenyl)(hydroxy)methyl)pyrrolidin-2-yl)methyl)-N-((2-fluoropyridin-3-yl)methyl)-N-methylbenzamide], for which the EC50 was 0.136 µM, the “Fold drop in potency vs. 2-chloropyridine analog” value worked out at 3.9 fold and the “Human β3-AR Agonist Activity (%)” value was found to be 93%.

`COCc1cc(CN(C)C(=O)c2ccc(C[C@@H]3CC[C@H]([C@H](O)c4ccc(Cl)nc4)N3)cc2)n[nH]1` [Example 9-A, 4-(((2S,5R)-5-((R)-(6-chloropyridin-3-yl)(hydroxy)methyl)pyrrolidin-2-yl)methyl)-N-((5-(methoxymethyl)-1H-pyrazol-3-yl)methyl)-N-methylbenzamide]: the EC50 was 0.003 µM and the “Human β3-AR Agonist Activity (%)” value turned out to be 93%.

Regarding `CN(Cc1ccc(=O)[nH]c1)C(=O)c1ccc(C[C@@H]2CC[C@H]([C@H](O)c3cccc(F)c3)N2)cc1` [Example 28-C, 4-(((2S,5R)-5-((R)-(3-fluorophenyl)(hydroxy)methyl)pyrrolidin-2-yl)methyl)-N-methyl-N-((6-oxo-1,6-dihydropyridin-3-yl)methyl)benzamide], the EC50 was determined as 0.816 µM, the “Fold drop in potency vs. 2-chloropyridine analog” value is 4.7 fold and the “Human β3-AR Agonist Activity (%)” value is 78%.

For `CN(Cc1cccnc1)C(=O)c1ccc(C[C@@H]2CC[C@H]([C@H](O)c3ccccc3)N2)cc1` [Example 21-B, 4-(((2S,5R)-5-((R)-hydroxy(phenyl)methyl)pyrrolidin-2-yl)methyl)-N-methyl-N-(pyridin-3-ylmethyl)benzamide], the EC50 was determined as 0.041 µM, the “Fold drop in potency vs. 2-chloropyridine analog” value is 9.7 fold and the “Human β3-AR Agonist Activity (%)” value is recorded as 86%.

For the compound `Cc1cc(C(Cc2ccccc2)N(C)C(=O)c2ccc(C[C@@H]3CC[C@H]([C@H](O)c4cccnc4)N3)cc2)[nH]n1` (stereo partly drawn) [Example 6-H, 4-(((2S,5R)-5-((R)-hydroxy(pyridin-3-yl)methyl)pyrrolidin-2-yl)methyl)-N-methyl-N-(1-(5-methyl-1H-pyrazol-3-yl)-2-phenylethyl)benzamide], the EC50 was found to be 0.007 µM, the “Fold drop in potency vs. 2-chloropyridine analog” value is 2.4 fold and the “Human β3-AR Agonist Activity (%)” value stood at 92%.

On to `Cc1[nH]nc(CN(C)C(=O)c2ccc(C[C@@H]3CC[C@H]([C@H](O)c4ccc(Cl)nc4)N3)cc2)c1Cl` [Example 17-A, N-((4-chloro-5-methyl-1H-pyrazol-3-yl)methyl)-4-(((2S,5R)-5-((R)-(6-chloropyridin-3-yl)(hydroxy)methyl)pyrrolidin-2-yl)methyl)-N-methylbenzamide], for which the EC50 stood at 0.004 µM and the “Human β3-AR Agonist Activity (%)” value is 94%.

In the case of `COCCN(C)C(=O)c1ccc(C[C@@H]2CC[C@H]([C@H](O)c3ccc(Cl)nc3)N2)cc1` [Example 1-A], the EC50 came out at 0.096 µM and the “Human β3-AR Agonist Activity (%)” value is 100%.

For the compound `CN(Cc1cncc(C(C)(C)O)c1)C(=O)c1ccc(C[C@@H]2CC[C@H]([C@H](O)c3ccc(Cl)cc3)N2)cc1` [Example 32-G, 4-(((2S,5R)-5-((R)-(4-chlorophenyl)(hydroxy)methyl)pyrrolidin-2-yl)methyl)-N-((5-(2-hydroxypropan-2-yl)pyridin-3-yl)methyl)-N-methylbenzamide], the EC50 amounted to 0.016 µM, the “Fold drop in potency vs. 2-chloropyridine analog” value turned out to be 1.2 fold and the “Human β3-AR Agonist Activity (%)” value was determined as 98%.

`Cc1cc(CN(C)C(=O)c2ccc(C[C@@H]3CC[C@H]([C@H](O)c4ccc(Cl)nc4)N3)cc2)cnc1F` [Example 39-A, 4-(((2S,5R)-5-((R)-(6-chloropyridin-3-yl)(hydroxy)methyl)pyrrolidin-2-yl)methyl)-N-((6-fluoro-5-methylpyridin-3-yl)methyl)-N-methylbenzamide]: the EC50 stood at 0.001 µM and the “Human β3-AR Agonist Activity (%)” value stood at 96%.

Regarding `COCc1cc(CN(C)C(=O)c2ccc(C[C@@H]3CC[C@H]([C@H](O)c4cccnc4)N3)cc2)n[nH]1` [Example 9-H, 4-(((2S,5R)-5-((R)-hydroxy(pyridin-3-yl)methyl)pyrrolidin-2-yl)methyl)-N-((5-(methoxymethyl)-1H-pyrazol-3-yl)methyl)-N-methylbenzamide], the EC50 worked out at 0.104 µM, the “Fold drop in potency vs. 2-chloropyridine analog” value is 38.1 fold and the “Human β3-AR Agonist Activity (%)” value was found to be 101%.

Regarding `Cc1cc([C@@H](O)[C@H]2CC[C@@H](Cc3ccc(C(=O)N(C)Cc4cnccn4)cc3)N2)cnc1Cl` [Example 40-S, 4-(((2S,5R)-5-((R)-(6-chloro-5-methylpyridin-3-yl)(hydroxy)methyl)pyrrolidin-2-yl)methyl)-N-methyl-N-(pyrazin-2-ylmethyl)benzamide], the EC50 amounted to 3.13 µM, the “Fold drop in potency vs. 2-chloropyridine analog” value turned out to be 268.2 fold and the “Human β3-AR Agonist Activity (%)” value is 60%.

Consider `CN(Cc1cnccn1)C(=O)c1ccc(C[C@@H]2CC[C@H]([C@H](O)c3ccc(Cl)nc3)N2)cc1` [Example 40-A, 4-(((2S,5R)-5-((R)-(6-chloropyridin-3-yl)(hydroxy)methyl)pyrrolidin-2-yl)methyl)-N-methyl-N-(pyrazin-2-ylmethyl)benzamide], for which the EC50 amounted to 0.012 µM and the “Human β3-AR Agonist Activity (%)” value came to 111%.

`COCCN(C)C(=O)c1ccc(C[C@@H]2CC[C@H]([C@H](O)c3ccccc3)N2)cc1` [Example 1-B, 4-(((2S,5R)-5-((R)-hydroxy(phenyl)methyl)pyrrolidin-2-yl)methyl)-N-(2-methoxyethyl)-N-methylbenzamide]: the EC50 was 0.443 µM, the “Fold drop in potency vs. 2-chloropyridine analog” value was found to be 4.6 fold and the “Human β3-AR Agonist Activity (%)” value is on record as 93%.

On to `CN(Cc1cnccn1)C(=O)c1ccc(C[C@@H]2CC[C@H]([C@H](O)c3ccc(Cl)cc3)N2)cc1` [Example 40-G, 4-(((2S,5R)-5-((R)-(4-chlorophenyl)(hydroxy)methyl)pyrrolidin-2-yl)methyl)-N-methyl-N-(pyrazin-2-ylmethyl)benzamide], for which the EC50 was 0.019 µM, the “Fold drop in potency vs. 2-chloropyridine analog” value came to 1.6 fold and the “Human β3-AR Agonist Activity (%)” value turned out to be 100%.

For the compound `C[C@H](c1nn(C)c(=O)o1)N(C)C(=O)c1ccc(C[C@@H]2CC[C@H]([C@H](O)c3ccc(Cl)cc3)N2)cc1` [Example 18-G, 4-(((2S,5R)-5-((R)-(4-chlorophenyl)(hydroxy)methyl)pyrrolidin-2-yl)methyl)-N-methyl-N—((R)-1-(4-methyl-5-oxo-4,5-dihydro-1,3,4-oxadiazol-2-yl)ethyl)benzamide], the EC50 was found to be 0.013 µM, the “Fold drop in potency vs. 2-chloropyridine analog” value was 1.7 fold and the “Human β3-AR Agonist Activity (%)” value was found to be 101%.

Take `CN(Cc1cccnc1)C(=O)c1ccc(C[C@@H]2CC[C@H]([C@H](O)c3cncc(F)c3)N2)cc1` [Example 21-R, 4-(((2S,5R)-5-((R)-(5-fluoropyridin-3-yl)(hydroxy)methyl)pyrrolidin-2-yl)methyl)-N-methyl-N-(pyridin-3-ylmethyl)benzamide]: the EC50 was 0.057 µM, the “Fold drop in potency vs. 2-chloropyridine analog” value is listed as 13.3 fold and the “Human β3-AR Agonist Activity (%)” value turned out to be 91%.

The values are drawn from patent publication US20160235727A1, “NOVEL PYRROLIDINE DERIVED BETA 3 ADRENERGIC RECEPTOR AGONISTS” (Merck Sharp & Dohme Corp., priority 2013, published 2016).
